Source: ChEMBL document CHEMBL1268914, “5,6,7,8-Tetrahydropyrido[4,3-d]pyrimidines as novel class of potent and highly selective CaMKII inhibitors” (Bioorg Med Chem Lett, 2010)
pIC50, pKi: −log10 of the molar value.

Experiments:
[1] = Inhibition of CAMK2
[2] = Non-competitive inhibition of CAMK2 by Michaelis-Menten plot
[3] = target: T1, Calcium/calmodulin-dependent protein kinase type IV (Homo sapiens, UniProt Q16566); experiment: Inhibition of CAMK4
T1 sequence (Q16566 whole entry): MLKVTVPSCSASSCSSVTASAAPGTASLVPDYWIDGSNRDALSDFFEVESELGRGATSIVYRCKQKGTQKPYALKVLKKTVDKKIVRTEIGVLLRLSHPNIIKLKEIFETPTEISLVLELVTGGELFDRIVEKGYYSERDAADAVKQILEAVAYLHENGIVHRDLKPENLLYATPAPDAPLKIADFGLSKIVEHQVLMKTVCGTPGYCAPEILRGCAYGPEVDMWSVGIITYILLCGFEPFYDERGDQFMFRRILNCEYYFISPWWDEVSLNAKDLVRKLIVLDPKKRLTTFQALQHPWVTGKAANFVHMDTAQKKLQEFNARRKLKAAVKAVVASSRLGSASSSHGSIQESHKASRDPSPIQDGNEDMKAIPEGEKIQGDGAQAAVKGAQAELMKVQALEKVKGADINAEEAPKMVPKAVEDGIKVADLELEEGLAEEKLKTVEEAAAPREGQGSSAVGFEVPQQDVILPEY

[4] = target: Myosin light chain kinase, smooth muscle (Homo sapiens, UniProt Q15746); experiment: Inhibition of MLCK
[5] = target: Mitogen-activated protein kinase 14 (Homo sapiens, UniProt Q16539); experiment: Inhibition of p38alpha
[6] = target: RAC-alpha serine/threonine-protein kinase (Homo sapiens, UniProt P31749); experiment: Inhibition of AKT1
[7] = Inhibition of PKC

Chain of Myosin light chain kinase, smooth muscle (Q15746 whole entry): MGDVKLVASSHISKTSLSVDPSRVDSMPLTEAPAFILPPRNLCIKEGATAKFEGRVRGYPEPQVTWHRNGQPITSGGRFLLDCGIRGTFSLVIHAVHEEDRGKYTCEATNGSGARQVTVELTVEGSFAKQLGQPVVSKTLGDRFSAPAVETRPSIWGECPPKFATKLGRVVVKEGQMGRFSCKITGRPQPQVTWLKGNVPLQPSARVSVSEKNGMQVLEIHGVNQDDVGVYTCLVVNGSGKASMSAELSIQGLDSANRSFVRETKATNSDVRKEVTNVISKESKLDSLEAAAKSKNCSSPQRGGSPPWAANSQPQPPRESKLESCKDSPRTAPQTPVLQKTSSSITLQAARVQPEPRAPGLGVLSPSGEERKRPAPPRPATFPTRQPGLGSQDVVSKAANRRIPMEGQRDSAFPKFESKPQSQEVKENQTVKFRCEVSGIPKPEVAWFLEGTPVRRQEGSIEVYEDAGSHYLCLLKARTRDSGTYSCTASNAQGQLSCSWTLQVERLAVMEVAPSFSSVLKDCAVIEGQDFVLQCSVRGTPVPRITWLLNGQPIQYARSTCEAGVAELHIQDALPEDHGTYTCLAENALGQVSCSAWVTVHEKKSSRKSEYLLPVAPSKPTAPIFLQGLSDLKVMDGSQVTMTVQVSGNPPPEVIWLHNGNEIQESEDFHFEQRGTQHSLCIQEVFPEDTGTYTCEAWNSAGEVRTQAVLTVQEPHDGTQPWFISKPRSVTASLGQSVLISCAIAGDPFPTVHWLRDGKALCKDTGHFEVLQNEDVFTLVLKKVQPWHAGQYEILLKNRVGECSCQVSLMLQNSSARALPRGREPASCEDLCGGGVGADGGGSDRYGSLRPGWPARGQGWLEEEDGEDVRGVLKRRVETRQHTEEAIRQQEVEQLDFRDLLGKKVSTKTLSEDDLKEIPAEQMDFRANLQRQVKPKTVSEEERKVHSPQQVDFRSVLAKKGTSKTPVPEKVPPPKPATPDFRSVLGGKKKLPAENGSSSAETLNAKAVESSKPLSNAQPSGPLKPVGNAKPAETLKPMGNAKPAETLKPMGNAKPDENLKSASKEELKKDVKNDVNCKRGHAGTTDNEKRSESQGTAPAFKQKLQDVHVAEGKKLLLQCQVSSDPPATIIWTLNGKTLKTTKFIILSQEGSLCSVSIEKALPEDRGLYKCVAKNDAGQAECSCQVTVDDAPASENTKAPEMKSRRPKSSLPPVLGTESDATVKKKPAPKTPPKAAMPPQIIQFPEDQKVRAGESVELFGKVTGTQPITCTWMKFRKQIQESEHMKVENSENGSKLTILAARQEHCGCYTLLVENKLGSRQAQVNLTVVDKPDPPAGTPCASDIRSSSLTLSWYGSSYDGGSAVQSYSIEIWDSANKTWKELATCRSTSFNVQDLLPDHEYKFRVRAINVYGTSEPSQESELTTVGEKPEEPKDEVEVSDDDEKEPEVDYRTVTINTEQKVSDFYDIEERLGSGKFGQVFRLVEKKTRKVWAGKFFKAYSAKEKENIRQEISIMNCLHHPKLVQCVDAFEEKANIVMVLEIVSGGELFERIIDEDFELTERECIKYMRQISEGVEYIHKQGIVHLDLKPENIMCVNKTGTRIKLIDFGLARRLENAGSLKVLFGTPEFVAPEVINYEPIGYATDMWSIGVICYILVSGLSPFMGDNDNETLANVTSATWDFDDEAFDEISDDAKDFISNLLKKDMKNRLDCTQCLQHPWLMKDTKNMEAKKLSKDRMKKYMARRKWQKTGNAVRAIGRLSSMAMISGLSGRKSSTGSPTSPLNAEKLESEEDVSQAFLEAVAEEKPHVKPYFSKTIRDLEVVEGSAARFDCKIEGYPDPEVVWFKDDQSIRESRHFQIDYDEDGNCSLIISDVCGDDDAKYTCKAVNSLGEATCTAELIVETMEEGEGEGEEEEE
Chain of Mitogen-activated protein kinase 14 (Q16539 whole entry): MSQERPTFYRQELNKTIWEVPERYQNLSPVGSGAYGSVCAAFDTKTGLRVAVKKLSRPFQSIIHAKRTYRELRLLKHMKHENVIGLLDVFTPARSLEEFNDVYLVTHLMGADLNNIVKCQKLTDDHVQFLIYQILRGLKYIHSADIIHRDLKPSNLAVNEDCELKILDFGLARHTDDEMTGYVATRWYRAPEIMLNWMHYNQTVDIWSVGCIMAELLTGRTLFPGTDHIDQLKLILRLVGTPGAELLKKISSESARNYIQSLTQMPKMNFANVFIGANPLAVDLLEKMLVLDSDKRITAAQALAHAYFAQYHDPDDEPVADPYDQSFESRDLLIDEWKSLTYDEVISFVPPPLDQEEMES
Chain of RAC-alpha serine/threonine-protein kinase (P31749 whole entry): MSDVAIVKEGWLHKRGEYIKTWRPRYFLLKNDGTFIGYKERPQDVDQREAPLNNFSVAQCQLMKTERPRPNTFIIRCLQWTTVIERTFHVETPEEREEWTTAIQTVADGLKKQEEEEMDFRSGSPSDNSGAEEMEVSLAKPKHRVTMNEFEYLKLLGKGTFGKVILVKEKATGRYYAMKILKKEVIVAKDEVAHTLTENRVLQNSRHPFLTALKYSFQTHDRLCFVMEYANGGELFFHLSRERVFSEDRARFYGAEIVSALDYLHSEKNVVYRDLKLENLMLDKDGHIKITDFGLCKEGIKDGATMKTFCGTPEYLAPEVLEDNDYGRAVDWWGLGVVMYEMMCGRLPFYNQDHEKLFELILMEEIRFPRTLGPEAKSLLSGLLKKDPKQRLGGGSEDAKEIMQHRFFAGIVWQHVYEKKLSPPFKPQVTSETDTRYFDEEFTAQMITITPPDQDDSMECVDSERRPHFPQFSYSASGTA

SMILES	pIC50 [1]	further results
CN(c1nc(NCCc2ccccc2)nc2c1CN(Cc1ccccc1)CC2)S(=O)(=O)c1ccccc1	5.03	–
CS(=O)(=O)Nc1ccnc(NCCc2ccccc2)n1	4.22	–
O=S(=O)(Nc1nc(NCCc2ccccc2)nc2c1CN(Cc1ccccc1)CC2)c1cccc2ccccc12	5.48	–
O=S(=O)(Cc1ccccc1)Nc1ccnc(NCCc2ccccc2)n1	4.57	–
O=S(=O)(Nc1nc(NCCc2ccccc2)nc2c1CN(Cc1ccccc1)CC2)c1ccc(Cl)cc1	5.49	–
O=S(=O)(Nc1nc(NCCc2ccccc2)nc2c1CN(Cc1ccccc1)CC2)c1ccccc1	5.01	–
CCCN(c1nc(NCCc2ccccc2)nc2c1CN(Cc1ccccc1)CC2)S(=O)(=O)c1ccccc1	< 4.52	–
O=S(=O)(Nc1ccnc(NCCc2ccccc2)n1)c1ccc(Cl)cc1	4.96	pIC50 [4]: 4.29
O=S(=O)(Nc1nc(NCCc2ccccc2)nc2c1CCCC2)c1ccc(Cl)cc1	4.22	–
CN1CCc2nc(NCCc3ccccc3)nc(NS(=O)(=O)c3ccccc3)c2C1	5.00	–

More lines, in order of rising pIC50 [1], values ahead:

pIC50 [1]	SMILES	further results
5.49	COc1ccc(S(=O)(=O)Nc2nc(NCCc3ccccc3)nc3c2CN(Cc2ccccc2)CC3)cc1	–
5.57	Cc1ccc(S(=O)(=O)Nc2nc(NCCc3ccccc3)nc3c2CN(Cc2ccccc2)CC3)cc1	–
5.62	Cc1cccc(S(=O)(=O)Nc2nc(NCCc3ccccc3)nc3c2CN(Cc2ccccc2)CC3)c1	–
5.74	O=S(=O)(Nc1nc(OCCc2ccccc2)nc2c1CN(Cc1ccccc1)CC2)c1ccc2ccccc2c1	–
5.80	COc1ccc(S(=O)(=O)N(CCO)c2ccccc2CN(C)C/C=C/c2ccc(Cl)cc2)cc1	–
6.00	O=S(=O)(Nc1nc(NCCc2ccccc2)nc2c1CN(Cc1ccccc1)CC2)c1cccc(Cl)c1Cl	–
6.04	O=S(=O)(Nc1nc(NCCc2ccccc2)nc2c1CN(Cc1ccccc1)CC2)c1ccccc1Cl	–
6.12	Cc1ccc(S(=O)(=O)Nc2nc(NCCc3ccccc3)nc3c2CN(Cc2ccccc2)CC3)cc1Cl	–
6.28	Cc1ccccc1S(=O)(=O)Nc1nc(NCCc2ccccc2)nc2c1CN(Cc1ccccc1)CC2	–
6.38	O=S(=O)(Nc1nc(NCCc2ccccc2)nc2c1CN(Cc1ccccc1)CC2)c1cccc(Cl)c1	–
6.70	O=S(=O)(Nc1nc(NCCc2ccccc2)nc2c1CN(Cc1ccccc1)CC2)c1ccc(Cl)c(Cl)c1	–
6.80	O=S(=O)(Nc1nc(NCCc2ccccc2)nc2c1CN(Cc1ccccc1)CC2)c1ccc2ccccc2c1	pKi [2]: 6.03; pIC50 [3]: < 4.22; pIC50 [4]: 6.05; pIC50 [5]: 4.96; pIC50 [6]: 5.07; pIC50 [7]: 4.66
7.20	Cc1c(Cl)cccc1S(=O)(=O)Nc1nc(NCCc2ccccc2)nc2c1CN(Cc1ccccc1)CC2	pIC50 [3]: < 4.22; pIC50 [4]: 4.44; pIC50 [5]: 4.96; pIC50 [6]: 4.52; pIC50 [7]: 4.68
